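Exposure lasted 48 hours, with cells grown in 96-well plates and compounds tested at five concentrations. Abbreviation: GI50, concentration required for 50% inhibition of growth. TGI: total growth inhibition.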
Tests used:
Assay in all cases: DTP human tumour cell line panel, 48 h
786-0 renal = system: 786-0 renal
A498 renal = system: A498 renal
A549 NSCLC = system: A549 NSCLC
ACHN renal = system: ACHN renal
BT-549 breast = system: BT-549 breast
CAKI-1 renal = system: CAKI-1 renal
CCRF-CEM leukemia = system: CCRF-CEM leukemia
COLO 205 colon = system: COLO 205 colon
DU-145 prostate = system: DU-145 prostate
EKVX NSCLC = system: EKVX NSCLC
HCC-2998 colon = system: HCC-2998 colon
HCT-116 colon = system: HCT-116 colon
HCT-15 colon = system: HCT-15 colon
HL-60(TB) leukemia = system: HL-60(TB) leukemia
HOP-62 NSCLC = system: HOP-62 NSCLC
HOP-92 NSCLC = system: HOP-92 NSCLC
HS 578T breast = system: HS 578T breast
HT29 colon = system: HT29 colon
IGROV1 ovarian = system: IGROV1 ovarian
K-562 leukemia = system: K-562 leukemia
KM12 colon = system: KM12 colon
LOX IMVI melanoma = system: LOX IMVI melanoma
M14 melanoma = system: M14 melanoma
MALME-3M melanoma = system: MALME-3M melanoma
MCF7 breast = system: MCF7 breast
MDA-MB-231 breast = system: MDA-MB-231 breast
MDA-MB-435 = system: MDA-MB-435
MOLT-4 leukemia = system: MOLT-4 leukemia

With `O=c1n(CC2CO2)c(=O)n(CC2CO2)n1CC1CO1` (stereo unspecified) the GI50 (786-0 renal) was 4.78 µM, the TGI (786-0 renal) was > 83.2 µM and the GI50 (A498 renal) was 14.1 µM. For the same molecule, the TGI (A498 renal) was 29.9 µM, the GI50 (A549 NSCLC) was 5.9 µM and the TGI (A549 NSCLC) was > 72 µM. For the same molecule, the GI50 (ACHN renal) was 2.69 µM, the TGI (ACHN renal) was > 100 µM and the GI50 (BT-549 breast) was 27.8 µM. For the same molecule, the TGI (BT-549 breast) was > 100 µM, the GI50 (CAKI-1 renal) was 2.22 µM and the TGI (CAKI-1 renal) was 21.7 µM. For the same molecule, the GI50 (CCRF-CEM leukemia) was 3.27 µM, the TGI (CCRF-CEM leukemia) was > 80.2 µM and the GI50 (COLO 205 colon) was 6.04 µM. For the same molecule, the TGI (COLO 205 colon) was 41.5 µM, the GI50 (DU-145 prostate) was 3.58 µM and the TGI (DU-145 prostate) was > 61.3 µM. For the same molecule, the GI50 (EKVX NSCLC) was 32.7 µM, the TGI (EKVX NSCLC) was > 100 µM and the GI50 (HCC-2998 colon) was 2.17 µM. The TGI (HCC-2998 colon) was 37.7 µM, the GI50 (HCT-116 colon) was 18.9 µM and the TGI (HCT-116 colon) was > 100 µM. The GI50 (HCT-15 colon) was 11.1 µM, the TGI (HCT-15 colon) was 44.3 µM and the GI50 (HL-60(TB) leukemia) was 4.99 µM. For the same molecule, the TGI (HL-60(TB) leukemia) was > 49.4 µM, the GI50 (HOP-62 NSCLC) was 4.7 µM and the TGI (HOP-62 NSCLC) was > 35.5 µM. The GI50 (HOP-92 NSCLC) was 49.3 µM, the TGI (HOP-92 NSCLC) was > 100 µM and the GI50 (HS 578T breast) was > 100 µM. For the same molecule, the TGI (HS 578T breast) was > 100 µM, the GI50 (HT29 colon) was 19.3 µM and the TGI (HT29 colon) was > 100 µM. The GI50 (IGROV1 ovarian) was 13.2 µM, the TGI (IGROV1 ovarian) was 41.1 µM and the GI50 (K-562 leukemia) was 51.4 µM. The TGI (K-562 leukemia) was > 100 µM, the GI50 (KM12 colon) was 31.5 µM and the TGI (KM12 colon) was > 100 µM. For the same molecule, the GI50 (LOX IMVI melanoma) was 16.7 µM, the TGI (LOX IMVI melanoma) was > 100 µM and the GI50 (M14 melanoma) was 21.9 µM. For the same molecule, the TGI (M14 melanoma) was > 100 µM, the GI50 (MALME-3M melanoma) was 64.1 µM and the TGI (MALME-3M melanoma) was > 100 µM. For the same molecule, the GI50 (MCF7 breast) was 3.68 µM, the TGI (MCF7 breast) was > 100 µM and the GI50 (MDA-MB-231 breast) was > 96.4 µM. For the same molecule, the TGI (MDA-MB-231 breast) was > 100 µM, the GI50 (MDA-MB-435) was 34.7 µM and the TGI (MDA-MB-435) was > 100 µM. For the same molecule, the GI50 (MOLT-4 leukemia) was 4.46 µM and the TGI (MOLT-4 leukemia) was > 100 µM.
